Patent publication US4588692A, “Antibiotic compounds, process for the preparation and pharmaceutical compositions thereof, methods of treatment therewith and Staphylococcus bacteria” (priority 1979, dated 1986)

Test system: S. epidermidis NCIB 11536
Test: Antibiotic disc sensitivities of the producer strain
Assay type: cell-based
Conditions: for Sensitive to: Amount of antibiotic/disc: strain sensitive at this disc content

Molecule | Novobiocin sensitivity (5 μg disc) | Sensitive to: Amount of antibiotic/disc
CO[C@@H]1[C@@H](OC(N)=O)[C@@H](O)[C@H](Oc2ccc3c(O)c(NC(=O)c4ccc(O)c(CC=C(C)C)c4)c(=O)oc3c2C)OC1(C)C [novobiocin] | sensitive | –
CC1(C)S[C@@H]2[C@H](NC(=O)Cc3ccccc3)C(=O)N2[C@H]1C(=O)O [penicillin G] | – | 1 unit
gentamycin | – | 10 µg
